The values below are quoted from earlier work in patent US8412321B2, “Method of identifying strategies for treatment or prevention of ventricular fibrillation and ventricular tachycardia” (Cornell Research Foundation, Inc., priority 2004, dated 2013).

This data set relates to arterially perfused canine ventricle.

Structures are written as SMILES.

With `COc1ccc(CCN(C)CCCC(C#N)(c2ccc(OC)c(OC)c2)C(C)C)cc1OC` (stereo not drawn) [verapamil], the “slope of the APD restitution relation” value (after exposure to verapamil, FIG. 14A) is given as “reduction in the slope of the APD restitution relation”. Besides, where the note is “pacing at different basic cycle lengths, FIG. 14B”, the “magnitude of APD alternans (AM)” value is listed as “reduction in the magnitude of APD alternans”. For the same compound, the “composite FFT of MAP recordings during VF” value (verapamil added after 35 min of VF, FIG. 14C) is “converted the broad FFT spectra during VF to a single frequency”.
